# From patent US4837228A, “Antiinflammatory and antimicrobial compounds and compositions” (The University of Mississippi, priority 1982, dated 1989)
# Where two headings read alike, the source gives them in different places.
# Legend:
# [1] = G.C. analysis of CBC in the hemolysis test solution; format: physicochemical
# Protocol: It was apparent that not all the CBC actually went into suspension. In order to determine if some of the CBC adhered to the wall of the glassware a 10 ml aliquot of the 2×10^-4 (solution a) of CBC saturated with NaCl was extracted with CHCl3 and analyzed by G.C. […] The flask was rinshed with ethanol and the washings analyzed by G.C. and found to contain 1.355 mg of CBC. The remaining 1.475 mg (50%) of CBC that could not be accounted for by G.C. analysis may have been lost during the extraction procedure or while adjusting the pH of the test solution. If the 1.475 mg CBC which could not be accounted for was actually in suspension then the maximum final concentration of CBC used in the highest CBC test level would be […] or one half the amount listed in Table 6. […] The actual activity of CBC may have been 3 to 30 times more protective of red cell membranes than an equivalent amount of PBZ.
# [2] = deaths and adverse effects observed in the rat paw edema test; format: in vivo; details: 480 mg/kg i.p. plus ethyl urethane i.p.
# Protocol: In the Rat Paw Edema Test, the rats utilized were divided into test groups of six to eight animals, weighed and marked so that individual rats could be identified; one hour before testing all rats were given a 700 mg/kg intraperitoneal injection of ethyl urethane in distilled water to render them tractable during testing. A circle was drawn, with a felt-tipped marker, around the hind leg of each rat just above the ankle, and each rat was dosed with a test or control compound by intraperitoneal injection. Negative control groups received the vehicle; while positive control groups received a dose of phenylbutazone (PBZ) as shown in Table II. Test compounds were given at doses of 60, 120, 240 and 480 mg/kg. The positive controls were given at 120 mg/kg and 60 mg/kg. Phenylbutazone was prepared for injection by suspending it in normal saline using Tween 60. The rats were then held in group cages for 30 minutes. The volume of the left hind paw was measured using a mercury displacement pleysmograph. The paw is dipped into the mercury until the mercury touches the line above the ankle. Mercury is then withdrawn until the mercury returns to its original level. The amount of mercury removed is measured in milliliters (ml). The mercury can be measured accurately to 0.01 ml. This left hind paw was then injected with 0.1 ml of a 5% w/v solution of viscous carageenan in normal saline. The injection was given between the metatarsal bones using a 27 gauge needle, and the rats then held in group cages for 3 hours. The volume of the left hind paws was measured again in the pleysmograph. The results were computed in the following manner:
# The eighth rat died within 24 hours of injection.
# Aspergillus niger = test: agar well diffusion assay, A. niger; format: cell-based; details: from edge of agar well
# Protocol: (§1) Both qualitative and quantitative screens were performed. Qualitative screening was accomplished using the agar well diffusion assay technque while quantitative screening was accomplished by the two-fold (broth) serial dilution method to determine the minimum inhibitory concentration (MIC). Innoculation was accomplished with one loop-full of a 1:10 dilution of the 24-hour-old broth culture, (fungal cultures and M.smegmatis more often required 48 to 72 hours of incubation) of the test organisms in sterile water. Streptomycin sulfate was used as a positive control for antibacterial activity while amphitericin B was used as an antifungal positive control. Organisms utilized in the screens included gram-positive, gram-negative, and acid-fast bacteria as well as different types of fungi. […] An intermediate type activity is seen where R is hydrogen. However, where R is lengthened up to C15 a decrease in activity was noted. Total saturation of the two double bonds in the compounds having a methyl side chain lead, in most cases, to an increase in both antifungal and antibacterial activity.
# Pseudomonas aeruginosa = test: agar well diffusion assay, Ps. aeruginosa; format: cell-based; details: from edge of agar well
# Protocol: as §1
# Saccharomyces cerevisiae = test: agar well diffusion assay, S. cerevisiae; format: cell-based; details: from edge of agar well
# Protocol: as §1
# Staphylococcus aureus = test: MIC, two-fold (broth) serial dilution, S. aureus; format: cell-based; details: Staphylococcus aureus, read-out: MIC
# Method in brief: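 Inoculation used a single loop of diluted (1:10) 24-hour broth culture suspended in sterile water, with incubation extended to 48–72 hours for fungi and M. smegmatis. Activity is read qualitatively by well diffusion on agar and quantitatively as MIC via twofold dilution series.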
# Bacillus subtilis = test: agar well diffusion assay, B. subtilis; format: cell-based; details: from edge of agar well
# Protocol: as §1
smiles,measurement,setting,value
"CCCCCc1cc(O)c2c(c1)OC(C)(CCC=C(C)C)C=C2 (stereo not drawn) [CBC (I), 2-methyl-2(4'methyl-pent-3'-enyl)-5-hydroxy-7-pentyl chromene]",amount of original CBC found in solution,"[1]; 10 ml aliquot, G.C.",0.3 mg
same,amount of CBC found in ethanol washings of the flask,[1]; G.C.,1.355 mg
same,maximum final concentration of CBC in the highest CBC test level,[1]; if unaccounted CBC was in suspension,50 µM
same,concentration of CBC found in test solution a,"[1]; nominal 2×10^-4, saturated with NaCl, extracted with CHCl3, G.C.",20 µM
same,deaths,[2],All the animals receiving 480 mg/kg died within 2 days of injection
same,width of inhibition zone,Aspergillus niger; 48 hr,2. mm
same,width of inhibition zone,Aspergillus niger; 72 hr,2. mm
same,width of inhibition zone,Pseudomonas aeruginosa; 24 hr,1. mm
same,width of inhibition zone,Pseudomonas aeruginosa; 48 hr,1. mm
same,width of inhibition zone,Saccharomyces cerevisiae; 48 hr,8. mm
same,width of inhibition zone,Saccharomyces cerevisiae; 72 hr,8. mm
same,MIC,Staphylococcus aureus; 24 h,1.56 µg/mL
same,MIC,Staphylococcus aureus; 48 h,1.56 µg/mL
same,width of inhibition zone,Bacillus subtilis; 24 hr,8.0 mm
same,width of inhibition zone,Bacillus subtilis; 48 hr,5.0 mm
